The target of one data set is T1, rh integrin α4β7 (Homo sapiens, UniProt P13612+P26010).
T1 construct: purchased R&D Systems 5397-A30
Description: α4β7-MAdCAM Competition ELISA. Particulars: Table 4-B; read-out: ELISA α4β7 IC50. It is filed as binding. A digest of the protocol: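 Competition read-out was A450 after anti-human IgG1-HRP and TMB detection of bound recombinant human MAdCAM-1 (10 nM final). Peptides were serially diluted 3-fold from a final 10 μM and equilibrated 1 h at room temperature on nickel-captured α4β7 (800 ng/well). The buffer was Tris pH 7.6 with 1 mM Mn2+ or Mg2+.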
(In an ELISA, binding on a coated surface is turned into a signal by an enzyme label.)

The nature of data set [1]: Simulated Gastric Fluid (SGF) Assay. In kind it is in vitro ADME. Particulars: pig, simulated gastric fluid (SGF) with porcine pepsin, pH 2; Table 4-C, t1/2. How it is done:
SGF was prepared by adding 20 mg NaCl, 32 mg porcine pepsin (MP Biochemicals, catalog 02102599), and 70 μl HCl to 10 ml water (final pH=2). Aliquots of SGF (0.5 ml each) were pre-warmed at 37° C. For each peptide tested, to start the reaction, 1 μl of peptide stock solution (10 mM in DMSO) was added to 0.5 ml SGF and thoroughly mixed such that the final peptide concentration was 20 μM. The reactions were incubated at 37° C. with gentle shaking. At each time point (0, 15, 30, 60 min), 50 μl aliquots were removed and added to 200 ul acetonitrile containing 0.1% formic acid to quench the reaction. Samples were stored at 4° C. until the end of the experiment and centrifuged at 10,000 rpm for 5 minutes. Aliquots of the supernatant were removed, diluted 1:1 into distilled water containing internal standard, and analyzed by LCMS/MS. Percent remaining at each timepoint was calculated based on the peak area response ratio of test compound to internal standard. Time 0 was set to 100%, and all later timepoints were calculated relative to time 0. Half-lives were calculated by fitting to a first-order exponential decay equation using GraphPad.

Data set [2] in a line: Dithiothreitol (DTT) Redox Stability Assay. It is filed as physicochemical. The note with it: Table 4-C, t1/2, 0.5 mM DTT. The method, then: For each peptide tested, the DTT stability assay was conducted by adding 5 μl of a 10 mM peptide stock solution in DMSO to 1 ml of 100 mM Tris-Cl, pH 7.5 (final peptide concentration is 50 μM). At time 0 min, 5 ul of a freshly thawed 100 mM DTT solution was added to the incubation tube containing the peptide, such that the final DTT concentration was 0.5 mM. The reactions were incubated at room temperature. At different time points up to 120 minutes (20 min, 40 min, 80 min, 120 min), 50 ul aliquots were removed, and the reaction was quenched by adding 10 μl of 5M acetic acid. To measure disappearance of the parent peptide, the quenched samples (30 μl) were analyzed by reverse phase HPLC and UV absorbance at 220 nm. The fraction oxidized remaining was graphed versus time, and half-lives were calculated by fitting to a first-order exponential decay equation using Excel.

Numbered stars: 1 amine (or outer) side, 2 acyl side, 3 side chain; on linkers, the order of the positions; unused ones are H or OH. Bridge positions count the residues as written; N and C are the ends. Square brackets hold non-standard residues; d marks the D form. Peptide text beside a SMILES is read from it. I, II: the chains in the order shown. 2Nal = N[C@@H](Cc1ccc2ccccc2c1)C(=O)O; Diglycolyl = O=C(COCC(=O)[*:2])[*:1]; NMeR = CN[C@@H](CCCNC(=N)N)C(=O)O; Pen = CC(C)(S)[C@H](N)C(=O)O Some results are limits rather than exact numbers.

As a reminder, the IC50 is the concentration needed to halve the response being measured. For orientation: half-life means the time in which the quantity being followed falls by half. Higher therefore signals slow loss.

T1 sequence (P13612 34-977 limits assumed): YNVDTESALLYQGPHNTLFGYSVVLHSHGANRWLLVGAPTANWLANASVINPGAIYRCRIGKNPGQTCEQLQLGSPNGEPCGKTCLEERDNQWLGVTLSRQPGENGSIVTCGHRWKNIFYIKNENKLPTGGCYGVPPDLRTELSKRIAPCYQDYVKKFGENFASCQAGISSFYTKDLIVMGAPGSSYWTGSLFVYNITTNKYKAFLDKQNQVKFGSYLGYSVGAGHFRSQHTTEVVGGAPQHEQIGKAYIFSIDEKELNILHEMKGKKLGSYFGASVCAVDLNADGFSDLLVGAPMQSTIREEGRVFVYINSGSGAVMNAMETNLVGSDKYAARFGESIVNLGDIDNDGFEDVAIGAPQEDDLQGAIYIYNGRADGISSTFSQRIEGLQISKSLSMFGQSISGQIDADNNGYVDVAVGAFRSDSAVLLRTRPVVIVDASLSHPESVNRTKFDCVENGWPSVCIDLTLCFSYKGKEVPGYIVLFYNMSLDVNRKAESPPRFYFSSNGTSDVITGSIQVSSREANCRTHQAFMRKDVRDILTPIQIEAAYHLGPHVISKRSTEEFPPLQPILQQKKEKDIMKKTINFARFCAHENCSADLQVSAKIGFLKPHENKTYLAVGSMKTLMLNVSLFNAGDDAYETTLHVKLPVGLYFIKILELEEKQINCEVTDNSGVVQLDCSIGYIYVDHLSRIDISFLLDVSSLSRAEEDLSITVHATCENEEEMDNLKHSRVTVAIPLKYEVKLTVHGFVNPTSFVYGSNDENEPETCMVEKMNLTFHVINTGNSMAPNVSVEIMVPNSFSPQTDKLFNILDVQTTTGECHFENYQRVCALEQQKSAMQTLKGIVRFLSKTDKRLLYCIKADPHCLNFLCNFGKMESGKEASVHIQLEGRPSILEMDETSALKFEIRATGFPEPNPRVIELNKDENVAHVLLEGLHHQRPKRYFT
T1 sequence (P26010 20-723 limits assumed): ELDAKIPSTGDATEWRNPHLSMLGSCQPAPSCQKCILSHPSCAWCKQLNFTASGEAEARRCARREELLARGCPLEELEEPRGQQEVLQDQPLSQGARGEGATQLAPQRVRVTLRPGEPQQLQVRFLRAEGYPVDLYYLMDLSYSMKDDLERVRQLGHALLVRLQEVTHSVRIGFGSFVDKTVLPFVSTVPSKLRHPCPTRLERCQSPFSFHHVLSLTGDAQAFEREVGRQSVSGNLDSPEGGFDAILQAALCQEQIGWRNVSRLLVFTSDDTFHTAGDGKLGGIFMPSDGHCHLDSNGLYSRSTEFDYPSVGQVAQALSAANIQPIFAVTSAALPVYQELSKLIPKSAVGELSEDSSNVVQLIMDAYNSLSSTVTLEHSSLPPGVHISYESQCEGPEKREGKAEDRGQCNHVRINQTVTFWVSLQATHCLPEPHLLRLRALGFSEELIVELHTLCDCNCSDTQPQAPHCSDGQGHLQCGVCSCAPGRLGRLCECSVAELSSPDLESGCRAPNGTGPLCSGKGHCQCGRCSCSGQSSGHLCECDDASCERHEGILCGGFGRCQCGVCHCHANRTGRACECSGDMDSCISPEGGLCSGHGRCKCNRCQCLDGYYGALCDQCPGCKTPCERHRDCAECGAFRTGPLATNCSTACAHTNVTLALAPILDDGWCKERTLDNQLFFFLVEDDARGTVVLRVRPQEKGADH

For the compound `CC(=O)N[C@H]1CSSC(C)(C)[C@@H](C(=O)N[C@@H](Cc2c[nH]c3ccccc23)C(=O)N[C@H](CCCCNC(=O)COCC(=O)NCCCC[C@@H](NC(=O)[C@H](Cc2c[nH]c3ccccc23)NC(=O)[C@H]2NC(=O)[C@H](CC(C)C)NC(=O)[C@H]([C@@H](C)O)NC(=O)[C@H](CC(=O)O)NC(=O)[C@H](CO)NC(=O)[C@H](CCCNC(=N)N)N(C)C(=O)[C@@H](NC(C)=O)CSSC2(C)C)C(N)=O)C(N)=O)NC(=O)[C@H](CC(C)C)NC(=O)[C@H]([C@@H](C)O)NC(=O)[C@H](CC(=O)O)NC(=O)[C@H](CO)NC(=O)[C@H](CCCNC(=N)N)N(C)C1=O` [compound 204, (Ac-C-N-Me-R-S-D-T-L-Pen-W-k-NH2)2-DIG] (I: Ac-C[NMeR]SDTL[Pen]W[dK]-NH2 / II: Ac-C[NMeR]SDTL[Pen]W[dK]-NH2; disulfide I:1-I:7, II:1-II:7 (inferred); linker I:9-II:9 via Diglycolyl (inferred)), the half-inhibitory concentration (IC50) at rh integrin α4β7 was found to be 2 nM. This compound had a half-life at 20 μM in data set [1] above 6 h. Moreover, in data set [2], the “DTT Min” value stood at 27 min.
Regarding `CC(=O)N[C@@H]1C(=O)N[C@@H](CCCNC(=N)N)C(=O)N[C@@H](CO)C(=O)N[C@@H](CC(=O)O)C(=O)N[C@@H]([C@@H](C)O)C(=O)N[C@@H](CC(C)C)C(=O)N[C@H](C(=O)N[C@H](CCCCNC(=O)COCC(=O)NCCCC[C@@H](NC(=O)[C@@H]2CSSC(C)(C)[C@H](NC(C)=O)C(=O)N[C@@H](CCCNC(=N)N)C(=O)N[C@@H](CO)C(=O)N[C@@H](CC(=O)O)C(=O)N[C@@H]([C@@H](C)O)C(=O)N[C@@H](CC(C)C)C(=O)N2)C(N)=O)C(N)=O)CSSC1(C)C` [compound 207, (Ac-Pen-R-S-D-T-L-C-k-NH2)2-DIG] (I: Ac-[Pen]RSDTLC[dK]-NH2 / II: Ac-[Pen]RSDTLC[dK]-NH2; disulfide I:1-I:7, II:1-II:7 (inferred); linker I:8-II:8 via Diglycolyl (inferred)), the IC50 at rh integrin α4β7 amounted to 26 nM. This compound also came in with a half-life at 20 μM in data set [1] above 1 h. Also, the “DTT Min” value in data set [2] was 35 min.
For `CC(=O)N[C@@H]1C(=O)N(C)[C@@H](CCCNC(=N)N)C(=O)N[C@@H](CO)C(=O)N[C@@H](CC(=O)O)C(=O)N[C@@H]([C@@H](C)O)C(=O)N[C@@H](CC(C)C)C(=O)N[C@H](C(=O)N[C@@H](Cc2c[nH]c3ccccc23)C(=O)N[C@H](CCCCN)C(N)=O)C(C)(C)SSC1(C)C` [compound 208, Ac-Pen-N-Me-R-S-D-T-L-Pen-W-k-NH2] (Ac-[Pen][NMeR]SDTL[Pen]W[dK]-NH2; disulfide 1-7) the same measures were 30.5 nM, above 6 h and above 120 min.
As to `CC(=O)N[C@@H]1C(=O)N(C)[C@@H](CCCNC(=N)N)C(=O)N[C@@H](CO)C(=O)N[C@@H](CC(=O)O)C(=O)N[C@@H]([C@@H](C)O)C(=O)N[C@@H](CC(C)C)C(=O)N[C@H](C(=O)N[C@@H](Cc2c[nH]c3ccccc23)C(=O)N[C@H](CCCCNC(=O)COCC(=O)NCCCC[C@@H](NC(=O)[C@H](Cc2c[nH]c3ccccc23)NC(=O)[C@H]2NC(=O)[C@H](CC(C)C)NC(=O)[C@H]([C@@H](C)O)NC(=O)[C@H](CC(=O)O)NC(=O)[C@H](CO)NC(=O)[C@H](CCCNC(=N)N)N(C)C(=O)[C@@H](NC(C)=O)C(C)(C)SSC2(C)C)C(N)=O)C(N)=O)C(C)(C)SSC1(C)C` [compound 209, (Ac-Pen-N-Me-R-S-D-T-L-Pen-W-k-NH2)2-DIG] (I: Ac-[Pen][NMeR]SDTL[Pen]W[dK]-NH2 / II: Ac-[Pen][NMeR]SDTL[Pen]W[dK]-NH2; disulfide I:1-I:7, II:1-II:7 (inferred); linker I:9-II:9 via Diglycolyl (inferred)), at rh integrin α4β7, the IC50 is 2.3 nM. The half-life at 20 μM in data set [1] was above 3 h. The “DTT Min” value in data set [2] is above 120 min.
Take `CC(=O)N[C@@H]1C(=O)N(C)[C@@H](CCCNC(=N)N)C(=O)N[C@@H](CO)C(=O)N[C@@H](CC(=O)O)C(=O)N[C@@H]([C@@H](C)O)C(=O)N[C@@H](CC(C)C)C(=O)N[C@H](C(=O)N[C@@H](Cc2c[nH]c3ccccc23)C(=O)N[C@H](CCC(=O)O)C(=O)N[C@H](CCCCNC(=O)COCC(=O)NCCCC[C@@H](NC(=O)[C@@H](CCC(=O)O)NC(=O)[C@H](Cc2c[nH]c3ccccc23)NC(=O)[C@H]2NC(=O)[C@H](CC(C)C)NC(=O)[C@H]([C@@H](C)O)NC(=O)[C@H](CC(=O)O)NC(=O)[C@H](CO)NC(=O)[C@H](CCCNC(=N)N)N(C)C(=O)[C@@H](NC(C)=O)C(C)(C)SSC2(C)C)C(N)=O)C(N)=O)C(C)(C)SSC1(C)C` [compound 211, (Ac-Pen-N-Me-R-S-D-T-L-Pen-W-e-k-NH2)2-DIG] (I: Ac-[Pen][NMeR]SDTL[Pen]W[dE][dK]-NH2 / II: Ac-[Pen][NMeR]SDTL[Pen]W[dE][dK]-NH2; disulfide I:1-I:7, II:1-II:7 (inferred); linker I:10-II:10 via Diglycolyl (inferred)): at rh integrin α4β7, the IC50 stood at 3 nM. In addition, in data set [1], the half-life at 20 μM was above 1 h. In addition, the “DTT Min” value in data set [2] is above 120 min.
With `CC(=O)N[C@@H]1C(=O)N(C)[C@@H](CCCNC(=N)N)C(=O)N[C@@H](CO)C(=O)N[C@@H](CC(=O)O)C(=O)N[C@@H]([C@@H](C)O)C(=O)N[C@@H](CC(C)C)C(=O)N[C@H](C(=O)N[C@@H](Cc2ccc3ccccc3c2)C(=O)N[C@@H](CCC(=O)O)C(=O)N[C@H](CCCCNC(=O)COCC(=O)NCCCC[C@@H](NC(=O)[C@H](CCC(=O)O)NC(=O)[C@H](Cc2ccc3ccccc3c2)NC(=O)[C@H]2NC(=O)[C@H](CC(C)C)NC(=O)[C@H]([C@@H](C)O)NC(=O)[C@H](CC(=O)O)NC(=O)[C@H](CO)NC(=O)[C@H](CCCNC(=N)N)N(C)C(=O)[C@@H](NC(C)=O)C(C)(C)SSC2(C)C)C(N)=O)C(N)=O)C(C)(C)SSC1(C)C` [compound 212, (Ac-Pen-N-Me-R-S-D-T-L-Pen-2-Nal-E-k-NH2)2-DIG] (I: Ac-[Pen][NMeR]SDTL[Pen][2Nal]E[dK]-NH2 / II: Ac-[Pen][NMeR]SDTL[Pen][2Nal]E[dK]-NH2; disulfide I:1-I:7, II:1-II:7 (inferred); linker I:10-II:10 via Diglycolyl (inferred)), at rh integrin α4β7, the IC50 came to 2 nM. Also, in data set [1], the half-life at 20 μM is 0.65 h. In data set [2], the “DTT Min” value was above 120 min.
In the case of `CC(=O)N[C@@H]1C(=O)N(C)[C@@H](CCCNC(=N)N)C(=O)N[C@@H](CO)C(=O)N[C@@H](CC(=O)O)C(=O)N[C@@H]([C@@H](C)O)C(=O)N[C@@H](CC(C)C)C(=O)N[C@H](C(=O)N[C@@H](Cc2c[nH]c3ccccc23)C(=O)N[C@H](CCC(=O)O)C(=O)N[C@H](CCCCNC(=O)COCC(=O)NCCCC[C@@H](NC(=O)[C@@H](CCC(=O)O)NC(=O)[C@H](Cc2c[nH]c3ccccc23)NC(=O)[C@H]2NC(=O)[C@H](CC(C)C)NC(=O)[C@H]([C@@H](C)O)NC(=O)[C@H](CC(=O)O)NC(=O)[C@H](CO)NC(=O)[C@H](CCCNC(=N)N)N(C)C(=O)[C@@H](NC(C)=O)C(C)(C)SSC2(C)C)C(=O)O)C(=O)O)C(C)(C)SSC1(C)C` [compound 216, (Ac-Pen-N-Me-R-S-D-T-L-Pen-W-e-k-OH)2-DIG] (I: Ac-[Pen][NMeR]SDTL[Pen]W[dE][dK]-OH / II: Ac-[Pen][NMeR]SDTL[Pen]W[dE][dK]-OH; disulfide I:1-I:7, II:1-II:7 (inferred); linker I:10-II:10 via Diglycolyl (inferred)), the concentration for half-maximal inhibition (IC50) on rh integrin α4β7 worked out at 2.8 nM. In data set [1], this compound had a half-life at 20 μM above 6 h.

Values taken from patent US9809623B2, “α4β7 peptide monomer and dimer antagonists” (Protagonist Therapeutics, Inc., priority 2014, dated 2017).
